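Growth conditions: 96-well plates. Treatment: test compound, 48 hours, 5 concentrations. Analysis: linear interpolation between bracketing concentrations; unreached endpoints set to highest concentration. GI50: concentration for 50% inhibition of growth.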 The source made the active and inactive calls. No stated cut-off is given here; in the data, active = GI50 up to about 1.1 µM and inactive = higher.

Results on five compounds are retold here after ChEMBL document CHEMBL1201862, “PubChem BioAssay data set” (2004).

Some test systems named below: ACHN; CAKI-1; COLO 205; HCT-15; HL-60; IGROV-1; LOX IMVI; MCF7; MDA-MB-231; MDA-MB-435; NCI-H226; NCI-H460; NCI-H522; OVCAR-8; SF-539; SK-MEL-28; SK-OV-3; SN12C; T47D; TK-10.
What all share (assay): NCI tumour cell line growth inhibition, 48 h

On to `O=c1[nH]c(=O)n(C2OC(CO)C(O)C(O)C2O)cc1F` (stereo not given), for which the GI50 in the experiment on ACHN was > 100 µM (inactive); in the experiment on CAKI-1, > 100 µM (inactive); in the experiment on COLO 205, > 100 µM (inactive); in the experiment on HCT-15, more than 100 µM; with HL-60, > 64.4 µM (inactive); in the experiment on IGROV-1, > 100 µM (inactive). The GI50 with LOX IMVI, in the experiment with MCF7, in the experiment with MDA-MB-231, in the experiment with MDA-MB-435, in the experiment with NCI-H226 and in the experiment on NCI-H460 was > 100 µM (inactive) in each case. In addition, the GI50 in the experiment with NCI-H522, in the experiment on OVCAR-8, in the experiment on SF-539, in the experiment with SK-MEL-28, in the experiment on SK-OV-3 and in the experiment on SN12C was > 100 µM (inactive) in each case. Moreover, the GI50 with T47D and in the experiment on TK-10 was > 100 µM (inactive) each time.

On to `COc1ccc(CCCCNCc2cccc(CNCCCCc3ccc(OC)cc3)c2)cc1`, for which the GI50 was 1.83 µM (inactive) in the experiment with ACHN; 1.8 µM (inactive) in the experiment on CAKI-1; 2.18 µM (inactive) in the experiment on COLO 205; 1.77 µM in the experiment with HCT-15; 1.77 µM (inactive) in the experiment on HL-60; 1.74 µM (inactive) with IGROV-1. The GI50 was 1.6 µM (inactive) in the experiment on LOX IMVI; 1.54 µM (inactive) in the experiment with MCF7; 1.87 µM (inactive) in the experiment on MDA-MB-231; 1.79 µM (inactive) in the experiment with MDA-MB-435; 0.385 µM (active) in the experiment on NCI-H226; 2.39 µM (inactive) with NCI-H460. The GI50 in the experiment on NCI-H522 was 1.88 µM (inactive); in the experiment on OVCAR-8 it was 1.8 µM (inactive); in the experiment with SF-539 it was 1.96 µM (inactive); with SK-MEL-28 it was 1.84 µM (inactive); with SK-OV-3 it was 2.08 µM (inactive); in the experiment on SN12C, 2.04 µM (inactive). Further, the GI50 was 2.06 µM (inactive) in the experiment with T47D and 2.07 µM (inactive) in the experiment with TK-10.

Turning to `O=C(O)CC1NC(/C(=C/c2ccccc2)NC(=O)c2ccccc2)OC1=O` (stereo not given), the GI50 in the experiment on ACHN was > 100 µM (inactive); in the experiment with CAKI-1 it was > 100 µM (inactive); in the experiment on COLO 205 it was 19.8 µM (inactive); with HCT-15 it was 31 µM; with HL-60, 11.6 µM (inactive); with IGROV-1 it was 25.1 µM (inactive). The GI50 is 16.2 µM (inactive) with LOX IMVI; 47.2 µM (inactive) in the experiment with MCF7; 27.4 µM (inactive) in the experiment on MDA-MB-231; 24.6 µM (inactive) with MDA-MB-435; 21.8 µM (inactive) in the experiment with NCI-H226; 22.2 µM (inactive) in the experiment with NCI-H460. Further, the GI50 was 16.5 µM (inactive) in the experiment with NCI-H522; 25.9 µM (inactive) in the experiment on OVCAR-8; 21 µM (inactive) with SF-539; 24.3 µM (inactive) in the experiment with SK-MEL-28; 55.3 µM (inactive) with SK-OV-3; 43.3 µM (inactive) in the experiment with SN12C. Further, the GI50 with T47D and in the experiment on TK-10 was > 100 µM (inactive) throughout.

Turning to `COc1c2c(cc3c1C1(O)Cc4ccc5c(c4C[N+]1(C)CC3)OCO5)OCO2` (stereo not given), the GI50 in the experiment on ACHN is > 100 µM (inactive); in the experiment with CAKI-1 it was > 100 µM (inactive); in the experiment on COLO 205, 58.5 µM (inactive); in the experiment with HCT-15, more than 100 µM; in the experiment on HL-60, 42.7 µM (inactive); with IGROV-1, > 100 µM (inactive). The GI50 with LOX IMVI is 62.1 µM (inactive); in the experiment on MCF7, > 100 µM (inactive); in the experiment with MDA-MB-231 it was > 100 µM (inactive); with MDA-MB-435 it was > 100 µM (inactive); in the experiment on NCI-H226 it was > 100 µM (inactive); in the experiment on NCI-H460, 88.1 µM (inactive). Besides, the GI50 in the experiment with NCI-H522 was 72.9 µM (inactive); in the experiment with OVCAR-8 it was > 100 µM (inactive); with SF-539, > 100 µM (inactive); in the experiment on SK-MEL-28, > 100 µM (inactive); with SK-OV-3, > 100 µM (inactive); with SN12C, > 100 µM (inactive). In addition, the GI50 in the experiment on T47D and in the experiment with TK-10 was > 100 µM (inactive) throughout.

As for `CN(C)c1ccc2cc3ccc(N(C)C)cc3nc2c1` [ACRIDINE ORANGE], the GI50 with ACHN was 0.611 µM (active); in the experiment with CAKI-1, 1.79 µM (inactive); in the experiment with COLO 205, 0.975 µM (active); in the experiment with HCT-15 it was 0.467 µM; with HL-60, 0.331 µM (active); with IGROV-1, 2.2 µM (inactive). The GI50 is 1.31 µM (inactive) in the experiment on LOX IMVI; 0.714 µM (active) with MCF7; 1.19 µM (inactive) in the experiment with MDA-MB-231; 1.79 µM (inactive) in the experiment with MDA-MB-435; 5.09 µM (inactive) in the experiment with NCI-H226; 0.393 µM (active) in the experiment on NCI-H460. Moreover, the GI50 was 1.58 µM (inactive) with NCI-H522; 1.56 µM (inactive) in the experiment with OVCAR-8; 1.88 µM (inactive) with SF-539; 3.37 µM (inactive) in the experiment with SK-MEL-28; 5.85 µM (inactive) with SK-OV-3; 0.962 µM (active) in the experiment with SN12C. In addition, the values for the GI50 in the experiment with T47D and in the experiment on TK-10 were 12.1 µM (inactive) and 2.86 µM (inactive), respectively.
